{"source": "patent US6589992B2", "about": "“Inhibiting collagen-induced platelet aggregation” (Parker Hughes Institute, priority 1999, dated 2003)", "key": {"[1]": {"test": "Pharmacokinetics in mice (HPLC plasma levels)", "conditions": "mouse, in vivo", "method": "All collected blood samples were heparinized and centrifuged at 7,000xg for 5 minutes in a microcentrifuge to obtain plasma. The plasma samples were stored at −20° C. until analysis.\nThe analytical column was equilibrated and eluted under isocratic conditions utilizing a flow rate of 1.0 mL/min at ambient temperature. The wavelength of detection was set at 294 nm. Peak width, response time, and slit were set at >0.03 min, 0.55 sec, and […], respectively. […] Following centrifugation at 300xg for 5 minutes, the supernatant was used for HPLC analysis using a system comprised of a Hewlett Packard (HP) series 1100 instrument equipped with an automated electronic degasser, a quaternary pump, an autosampler, an automatic thermostatic column compartment, diode array detector and a computer with a Chemstation software program for data analysis (Chen and Uckun, 1999; Malaviya et al., 2000). All extraction procedures were carried out at room temperature.\nThe unweighed linear regression analysis of the standard curves was performed by using the CA-Cricket Graph III computer program, Version 1.0 (Computer Association, Inc., Islandia, N.Y.). […] Pharmacokinetic modeling and pharmacokinetic parameter estimations were carried out using the pharmacokinetics software, WinNonlin Program, Professional version 3.0 (Pharsight Inc., Mountain view, Calif.) (Chen and Uckun, 1999; Malaviya et al. 2000; Uckun et al., 1999).\nThe elimination half-life was estimated by linear regression analysis of the terminal phase of the plasma concentration time profile. The area under the concentration time curve (AUC) was calculated by the linear trapezoidal rule between the first (0 hours) and last sampling time plus C/k, where C is the concentration at the last sampling time and k is the elimination rate constant. The systemic clearance (CL) was determined by dividing the does by the AUC (Chen and Uckun, 199; Malaviya et al., 2000; Uckun et al., 1999).\nA one-compartment, first order pharmacokinetic model was fit into the pharmacokinetic data. The numbers represent the average values estimated from the composite plasma concentration-time curve for pooled data. The mean±SEM values are indicated in parentheses. The values for the apparent volume of distribution (Vc) and systemic clearance (CL) were not corrected for bioavailability. t½=terminal elimination half-life; tmax=the time required to reach the maximum plasma drug concentration after i.p. administration."}, "mice [2]": {"tested_on": "mice", "test": "Toxicity of LFM-A13 in mice", "conditions": "mice N=160, 12.5 mg/kg to 100 mg/kg i.p.", "text": "For histopathologic studies, tissues were fixed in 10% neutral buffered formalin, dehydrated, and embedded in paraffin by routine methods."}, "human platelets": {"tested_on": "human platelets", "test": "Electron microscopy (HR-LVSEM, TEM) of platelet shape changes", "type": "cell-based", "conditions": "100 μM", "method": "HR-LVSEM was utilized for topographical imaging of the platelet surface membrane, as previously reported (D'Cruz et al., 1998). […] Treated platelets were then stimulated with collagen (10 μg/mL) or thrombin (0.1 U/mL) for 10 seconds (FIGS. 3A-3F). 3% glutaraldehyde was added to stop the reaction. Samples were prepared for HR-LVSEM as previously described (D'Cruz et al., 1998) and analyzed using a Hitachi S-900 SEM instrument (Hitachi Instruments, Gaithersburg, Md.) at an accelerating voltage of 2 kV and […].\nSamples were then prepared for TEM as previously described (White, 1983). Briefly, 0.1% glutaraldehyde was added to stop the reaction. Following a brief centrifugation, the sample pellets were layered with 3% glutaraldehyde for 40 minutes at room temperature. The samples were then postfixed in 1% OsO4 for 1 hour at 4° C., rinsed three times in distilled water at room temperature, dehydrated in a graded ethanol series (25, 50, 75, 90, 95 and 100%) and 100% propylene oxide. The samples were embedded in Embed 812 (Electron Microscopy Science, Washington, Pa.). Silver sections were picked up on mesh grids, stained 10 minutes in 1% uranyle acetate/70% ethanol, and 10 minutes in Reynold's lead citrate. […] True magnifications were determined by photographing a calibration grid at each magnification step on the microscope and using this scale to determine final print enlargements."}, "mice [3]": {"tested_on": "mice", "test": "Platelet plug formation and clotting time after retro-orbital venupuncture in mice", "type": "in vivo", "conditions": "for clotting time % Control / Mean Clotting Time: C57BL/6 mice; for Mean Clotting Time: n = 3", "method": "Mice were placed in a tube holder and tail bleeding was performed with a 2 mm cut from the protruding tail tip, the tail was placed vertically into 10 mL normal saline in a 37° C. water bath and bleeding times determined as previously described (Teng et al., 1997). Platelet plug formation and clotting times on the eye after retro-orbital venupuncture were evaluated using published methods (Sheu et al., 1995).\nThe blood of XID mice clotted approximately two minutes later than the CBA control mice. Following this pattern, blood from chronically treated mice also clotted two minutes later than control. […]"}, "platelets": {"tested_on": "platelets", "test": "Inositol-1,4,5-trisphosphate production in collagen-stimulated platelets", "type": "cell-based, human", "method": "Collagen stimulation was terminated by the addition of ice-cold 20% perchloric acid. Inositol-1,4,5,-trisphosphate (Ins-1,4,5-P3) levels were measured by using a D-myo-[^3H]inositol-1,4,5-trisphosphate assay system purchased from Amersham (Arlington Heights, Ill.), as reported (Uckun et al., 1991) (FIG. 2B). This highly sensitive assay is based on the competition between nonradiolabeled Ins-1,4,5-P3 in the cellular extracts and a fixed quantity of a high specific activity [^3H] Ins-1,4,5-P3 tracer for a limited number of binding sites on a Ins-1,4,5-P3-specific and sensitive bovine adrenal binding protein (Uckun et al., 1991).\nPlatelets were stimulated at 37 degrees C. with 2 μg/ml collagen for various times. Activation was stopped by the addition of ice cold 20% perchloric acid. The amount of inositol 1,4,5-triphosphate production was measured using a detection kit from Amersham."}, "[4]": {"conditions": "40 mg/kg, after retroorbital venupuncture"}}, "note": "Entries after “also recorded” stand apart in the source; their conditions may differ."}
{"compound": "C/C(O)=C(\\C#N)C(=O)Nc1cc(Br)ccc1Br", "note": "[LFM-A13, α-cyano-β-hydroxy-β-methyl-N-(2,5-dibromophenyl)-propenamide]", "values": [{"measurement": "AUC", "setting": "[1]; ip, 10 mg/kg", "value": "66.3 ± 3", "unit": "µM·h"}, {"measurement": "Cmax", "setting": "[1]; ip, 10 mg/kg", "value": "94 ± 8", "unit": "µM"}, {"measurement": "AUC", "setting": "[1]; ip, 20 mg/kg", "value": "183 ± 14", "unit": "µM·h"}, {"measurement": "Cmax", "setting": "[1]; ip, 20 mg/kg", "value": "243 ± 16", "unit": "µM"}, {"measurement": "AUC", "setting": "[1]; ip, 25 mg/kg", "value": "308 ± 31", "unit": "µM·h"}, {"measurement": "Cmax", "setting": "[1]; ip, 25 mg/kg", "value": "383 ± 35", "unit": "µM"}, {"measurement": "AUC", "setting": "[1]; ip, 40 mg/kg", "value": "653 ± 47", "unit": "µM·h"}, {"measurement": "Cmax", "setting": "[1]; ip, 40 mg/kg", "value": "640 ± 44", "unit": "µM"}, {"measurement": "AUC", "setting": "[1]; ip, 50 mg/kg", "value": "1020 ± 31", "unit": "µM·h"}, {"measurement": "Cmax", "setting": "[1]; ip, 50 mg/kg", "value": "940 ± 16", "unit": "µM"}, {"measurement": "AUC", "setting": "[1]; iv, 25 mg/kg", "value": "384 ± 30", "unit": "µM·h"}, {"measurement": "Cmax", "setting": "[1]; iv, 25 mg/kg", "value": "731 ± 22", "unit": "µM"}, {"measurement": "toxicity, single i.p. bolus", "setting": "mice [2]", "value": "not toxic"}, {"measurement": "collagen-induced pseudopod formation", "setting": "human platelets; 30 min, collagen 10 μg/mL, 10 seconds", "value": "inhibited collagen-induced pseudopod formation; also recorded: no pseudopods were observed"}, {"measurement": "thrombin-induced shape changes", "setting": "human platelets; thrombin 0.1 U/mL", "value": "did not inhibit the thrombin-induced shape changes"}, {"measurement": "clotting (eye clot) time", "setting": "mice [3]; [4]", "value": "2.6 ± 0.4", "unit": "min"}, {"measurement": "local platelet plug (eye plug) formation time", "setting": "mice [3]; [4]", "value": "45 ± 4", "unit": "s"}, {"measurement": "clotting time % Control", "setting": "mice [3]; 25 mg/kg chronic 36 days", "value": 231, "unit": "%"}, {"measurement": "Mean Clotting Time", "setting": "mice [3]; 25 mg/kg chronic 36 days", "value": 3.7, "unit": "min"}, {"measurement": "clotting time % Control", "setting": "mice [3]; 40 mg/kg acute 1 hour", "value": 164, "unit": "%"}, {"measurement": "Mean Clotting Time", "setting": "mice [3]; 40 mg/kg acute 1 hour", "value": 2.6, "unit": "min"}, {"measurement": "% control inositol 1,4,5-triphosphate production (peak response)", "setting": "platelets; 100 μM LFM-A13 alone, no collagen", "value": 75, "unit": "% control"}, {"measurement": "% control inositol 1,4,5-triphosphate production (peak response)", "setting": "platelets; 100 μM LFM-A13 and 2 μg/ml collagen", "value": 75, "unit": "% control"}, {"measurement": "Ins-1,4,5-P3 levels between 30 and 60 seconds after collagen stimulation", "setting": "platelets; 100 μM pretreatment", "value": "remained at baseline"}, {"measurement": "collagen-stimulated PI-PLC activity", "setting": "platelets; 100 μM, 30 min, 2 μg/ml collagen", "value": "inhibited collagen-stimulated PI-PLC activity"}, {"measurement": "Ins-1,4,5-P3 levels", "setting": "platelets; 100 μM, 30 min pretreatment, 30 seconds after collagen stimulation", "value": "17.8±1.4", "unit": "pmols/10^9 platelets"}, {"measurement": "inhibition at 100 µM", "setting": "platelets; Homo sapiens, Platelet, read-out: % inhibition of inositol 1,4,5-triphosphate production", "value": 100, "unit": "%"}]}
